Molecules are shown by their SMILES. Where only a bound is given, the exact number is not on record here.

One experiment deals with T1, P2X7 receptor (Homo sapiens, UniProt Q99572).
T1 construct: host or cells: SH-SY5Y
T1 sequence (Q99572 1-595): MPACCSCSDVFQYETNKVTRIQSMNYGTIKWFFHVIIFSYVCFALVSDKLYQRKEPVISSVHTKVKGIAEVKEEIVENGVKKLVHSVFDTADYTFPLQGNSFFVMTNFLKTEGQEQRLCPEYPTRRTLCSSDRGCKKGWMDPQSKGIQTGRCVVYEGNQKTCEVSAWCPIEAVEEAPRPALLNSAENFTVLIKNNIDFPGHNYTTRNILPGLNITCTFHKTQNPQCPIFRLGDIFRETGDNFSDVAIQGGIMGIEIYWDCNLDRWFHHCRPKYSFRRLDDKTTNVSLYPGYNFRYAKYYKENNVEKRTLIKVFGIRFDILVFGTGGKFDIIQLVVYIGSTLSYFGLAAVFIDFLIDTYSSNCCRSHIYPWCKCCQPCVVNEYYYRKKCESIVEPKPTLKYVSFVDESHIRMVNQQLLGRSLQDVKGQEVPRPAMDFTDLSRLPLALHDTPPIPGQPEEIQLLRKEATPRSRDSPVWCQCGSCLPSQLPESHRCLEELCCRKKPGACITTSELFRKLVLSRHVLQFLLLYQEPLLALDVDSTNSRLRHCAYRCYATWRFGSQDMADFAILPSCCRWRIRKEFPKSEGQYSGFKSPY
The experiment in a line: P2X7 calcium mobilization assay, high throughput, antagonist activity (Example 4A). The format is cell-based.
Details: not given
In short, it runs like this: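 FLIPR^TETRA calcium read-out: maximum RFU per well minus average no-agonist control, with agonist wells giving the average positive maximum. Cells seeded at 100,000/well one day ahead, dye-loaded 1 h, rinsed, then exposed to compound for 1 h at room temperature.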
With `CC(C)CC(CNC(=O)c1cccc2nc(CC(=O)N3CCC4(CC3)OCCO4)cn12)c1ccccc1` (stereo not drawn) [Compound 247, 2-[2-(1,4-dioxa-8-azaspiro[4.5]dec-8-yl)-2-oxoethyl]-N-(4-methyl-2-phenylpentyl)imidazo [1,2-a]pyridine-5-carboxamide], the IC50 was under 2000 nM.

Consider `CC(C)CC(CNC(=O)c1cccc2nc(C(=O)N3CCC4(CC3)OCCO4)cn12)c1ccccc1` (stereo not drawn) [Compound 263, 2-(1,4-dioxa-8-azaspiro[4.5]dec-8-ylcarbonyl)-N-(4-methyl-2-phenylpentyl)imidazo [1,2-a]pyridine-5-carboxamide], for which the IC50 is under 2000 nM.

Still in this experiment, the particulars now being: fluorescence response of cells exposed to 80 μM 2′(3′)-O-(4-benzoyl-benzoyl)adenosine 5′-triphosphate; Example 4A; read-out: IC50.
As for `CCC(COC)NC(=O)Cc1cn2c(C(=O)NCC(CC(C)C)c3ccccc3)cccc2n1` (stereo not drawn) [Compound 231, 2-(2-{[1-(methoxymethyl)propyl]amino}-2-oxoethyl)-N-(4-methyl-2-phenylpentyl) imidazo [1,2-a]pyridine-5-carboxamide], the 50% inhibitory concentration (IC50) was under 2000 nM.

Take `CC(C)CC(CNC(=O)c1cccc2nc(CC(=O)NC(C)C(N)=O)cn12)c1ccccc1` (stereo not drawn) [Compound 235, 2-{2-[(2-amino-1-methyl-2-oxoethyl)amino]-2-oxoethyl}-N-(4-methyl-2-phenylpentyl)imidazo [1,2-a]pyridine-5-carboxamide]: the IC50 is under 2000 nM.

`CC(C)CC(CNC(=O)c1cccc2nc(CC(=O)N3CCCC(C(F)(F)F)C3)cn12)c1ccccc1` (stereo not drawn) [Compound 238, N-(4-methyl-2-phenylpentyl)-2-{2-oxo-2-[3-(trifluoromethyl)piperidin-1-yl]ethyl}imidazo [1,2-a]pyridine-5-carboxamide]: the half-maximal inhibitory concentration (IC50) is under 2000 nM.

Turning to `COC1CCN(C(=O)Cc2cn3c(C(=O)NCC(CC(C)C)c4ccccc4)cccc3n2)CC1` (stereo not drawn) [Compound 239, 2-[2-(4-methoxypiperidin-1-yl)-2-oxoethyl]-N-(4-methyl-2-phenylpentyl)imidazo [1,2-a]pyridine-5-carboxamide], the half-inhibitory concentration (IC50) was under 2000 nM.

With `COCC1CCCN(C(=O)Cc2cn3c(C(=O)NCC(CC(C)C)c4ccccc4)cccc3n2)C1` (stereo not drawn) [Compound 240, 2-{2-[3-(methoxymethyl)piperidin-1-yl]-2-oxoethyl}-N-(4-methyl-2-phenylpentyl)imidazo [1,2-a]pyridine-5-carboxamide], the IC50 was under 2000 nM.

Turning to `COCC1CCCCN1C(=O)Cc1cn2c(C(=O)NCC(CC(C)C)c3ccccc3)cccc2n1` (stereo not drawn) [Compound 241, 2-{2-[2-(methoxymethyl)piperidin-1-yl]-2-oxoethyl}-N-(4-methyl-2-phenylpentyl)imidazo [1,2-a]pyridine-5-carboxamide], the half-maximal inhibitory concentration (IC50) is under 2000 nM.

For `CC(C)CC(CNC(=O)c1cccc2nc(CC(=O)N3CCCC3)cn12)c1ccccc1` (stereo not drawn) [Compound 242, N-(4-methyl-2-phenylpentyl)-2-(2-oxo-2-pyrrolidin-1-ylethyl)imidazo[1,2-a]pyridine-5-carboxamide], the IC50 was under 2000 nM.

As to `CC(C)CC(CNC(=O)c1cccc2nc(CC(=O)N3CCCCC3)cn12)c1ccccc1` (stereo not drawn) [Compound 243, N-(4-methyl-2-phenylpentyl)-2-(2-oxo-2-piperidin-1-ylethyl)imidazo[1,2-a]pyridine-5-carboxamide], the half-maximal inhibitory concentration (IC50) was under 2000 nM.

For `CC(C)CC(CNC(=O)c1cccc2nc(CC(=O)N3CCCC(C)(C)C3)cn12)c1ccccc1` (stereo not drawn) [Compound 244, 2-[2-(3,3-dimethylpiperidin-1-yl)-2-oxoethyl]-N-(4-methyl-2-phenylpentyl)imidazo [1,2-a]pyridine-5-carboxamide], the IC50 was under 2000 nM.

Consider `CCCN(C)C(=O)Cc1cn2c(C(=O)NCC(CC(C)C)c3ccccc3)cccc2n1` (stereo not drawn) [Compound 246, N-(4-methyl-2-phenylpentyl)-2-{2-[methyl(propyl)amino]-2-oxoethyl)imidazo[1,2-a]pyridine-5-carboxamide], for which the IC50 was under 2000 nM.

For the compound `N[C@@H]1CCN(Cc2cn3c(C(=O)NCCC45CC6CC(CC(C6)C4)C5)cccc3n2)C1` [Compound 248, N-(2-adamantan-1-ylethyl)-2-{[(3R)-3-aminopyrrolidin-1-yl]methyl}imidazo[1,2-a]pyridine-5-carboxamide], the concentration for half-maximal inhibition (IC50) is under 2000 nM.

Consider `CC1(C)C2CC[C@@H](CNC(=O)c3cccc4nc(CN5CC[C@@H](N)C5)cn34)C1C2` (stereo partly drawn) [Compound 249, 2-{[(3R)-3-aminopyrrolidin-1-yl]methyl}-N-{[(2R)-6,6-dimethylbicyclo[3.1.1]hept-2-yl]methyl}imidazo[1,2-a]pyridine-5-carboxamide], for which the IC50 is under 2000 nM.

For the compound `COC[C@@H]1CCCN1C(=O)c1cn2c(C(=O)NCC(CC(C)C)c3ccccc3)cccc2n1` (stereo partly drawn) [Compound 257, 2-{[(2S)-2-(methoxymethyl)pyrrolidin-1-yl]carbonyl)-N-(4-methyl-2-phenylpentyl)imidazo [1,2-a]pyridine-5-carboxamide], the concentration for half-maximal inhibition (IC50) was under 2000 nM.

As for `CC(C)CC(CNC(=O)c1cccc2nc(C(=O)N3CCCC3)cn12)c1ccccc1` (stereo not drawn) [Compound 260, N-(4-methyl-2-phenylpentyl)-2-(pyrrolidin-1-ylcarbonyl)imidazo [1,2-a]pyridine-5-carboxamide], the half-inhibitory concentration (IC50) was under 2000 nM.

As to `CCCN(C)C(=O)c1cn2c(C(=O)NCC(CC(C)C)c3ccccc3)cccc2n1` (stereo not drawn) [Compound 262, 2-N-methyl-5-N-(4-methyl-2-phenylpentyl)-2-N-propylimidazo[1,2-a]pyridine-2,5-dicarboxamide], the IC50 was under 2000 nM.

In the case of `NCCSCc1cn2c(C(=O)NCC34CC5CC(CC(C5)C3)C4)cccc2n1` [Compound 266, N-(adamantan-1-ylmethyl)-2-{[(2-aminoethyl)thio]methyl}imidazo[1,2-a]pyridine-5-carboxamide], the concentration for half-maximal inhibition (IC50) was under 2000 nM.

As to `O=C(NCC12CC3CC(CC(C3)C1)C2)c1cccc2nc(CS(=O)(=O)CCO)cn12` [Compound 267, N-(adamantan-1-ylmethyl)-2-{[(2-hydroxyethyl)sulfonyl]methyl}imidazo[1,2-a]pyridine-5-carboxamide], the IC50 was under 2000 nM.

With `CN(C)C(=O)NCCc1cn2c(C(=O)NCC34CC5CC(CC(C5)C3)C4)cccc2n1` [Compound 268, N-(adamantan-1-ylmethyl)-2-{2-[(dimethylcarbamoyl)amino]ethyl} imidazo[1,2-a] pyridine-5-carboxamide], the IC50 was under 2000 nM.

Take `NCC(=O)NCCc1cn2c(C(=O)NCC34CC5CC(CC(C5)C3)C4)cccc2n1` [Compound 269, N-(adamantan-1-ylmethyl)-2-[2-(glycylamino)ethyl] imidazo[1,2-a] pyridine-5-carboxamide]: the concentration for half-maximal inhibition (IC50) is under 2000 nM.

Regarding `CNCC(=O)NCCc1cn2c(C(=O)NCC34CC5CC(CC(C5)C3)C4)cccc2n1` [Compound 270, N-(adamantan-1-ylmethyl)-2-{2-[(N-methylglycyl)amino]ethyl}imidazo[1,2-a] pyridine-5-carboxamide], the IC50 is under 2000 nM.

As to `N#CCCc1cn2c(C(=O)NCC34CC5CC(CC(C5)C3)C4)cccc2n1` [Compound 274, N-(adamantan-1-ylmethyl)-2-(2-cyanoethyl)imidazo[1,2-a]pyridine-5-carboxamide], the IC50 is under 2000 nM.

As to `Cc1nn(Cc2cn3c(C(=O)NCC45CC6CC(CC(C6)C4)C5)cccc3n2)cc1C(=O)O` [Compound 275, 1-({5-[(adamantan-1-ylmethyl)carbamoyl]imidazo [1,2-a]pyridin-2-yl}methyl)-3-methyl-1H-pyrazole-4-carboxylic acid], the half-inhibitory concentration (IC50) was under 2000 nM.

On to `Cc1cc(C(=O)O)nn1Cc1cn2c(C(=O)NCC34CC5CC(CC(C5)C3)C4)cccc2n1` [Compound 276, 1-({5-[(adamantan-1-ylmethyl)carbamoyl]imidazo[1,2-a]pyridin-2-yl}methyl)-5-methyl-1H-pyrazole-3-carboxylic acid], for which the IC50 was under 2000 nM.

On to `C[C@H](N)C(=O)N[C@@H]1CCN(Cc2cn3c(C(=O)NCC45CC6CC(CC(C6)C4)C5)cccc3n2)C1` [Compound 277, N-(adamantan-1-ylmethyl)-2-{[(3R)-3-(L-alanylamino)pyrrolidin-1-yl]methyl}imidazo[1,2-a]pyridine-5-carboxamide], for which the IC50 was under 2000 nM.

As to `C=Cc1cn2c(C(=O)NCC34CC5CC(CC(C5)C3)C4)cccc2n1` [Compound 278, N-(adamantan-1-ylmethyl)-2-vinylimidazo[1,2-a]pyridine-5-carboxamide], the half-inhibitory concentration (IC50) is under 2000 nM.

Turning to `Cc1c(C(=O)O)ncn1Cc1cn2c(C(=O)NCC34CC5CC(CC(C5)C3)C4)cccc2n1` [Compound 279, 1-({5-[(adamantan-1-ylmethyl)carbamoyl]imidazo[1,2-a]pyridin-2-yl}methyl)-5-methyl-1H-imidazole-4-carboxylic acid], the 50% inhibitory concentration (IC50) was under 2000 nM.

Regarding `CCOC(=O)c1cn2c(C(=O)NC(C)C34CC5CC(CC(C5)C3)C4)cccc2n1` (stereo not drawn) [Compound 280, ethyl 5-[(1-adamantan-1-ylethyl)carbamoyl] imidazo[1,2-a] pyridine-2-carboxylate], the half-inhibitory concentration (IC50) was under 2000 nM.

With `CCOC(=O)Cc1cn2c(C(=O)NC(C)C34CC5CC(CC(C5)C3)C4)cccc2n1` (stereo not drawn) [Compound 281, ethyl {5-[(1-adamantan-1-ylethyl)carbamoyl]imidazo[1,2-a]pyridin-2-yl}acetate], the half-maximal inhibitory concentration (IC50) was under 2000 nM.

(Values after patent US8431593B2, “Heteroaryl amide derivatives” (H. Lundbeck A/S, priority 2006, dated 2013).)
